Data on three compounds can be found in patent publication US10172357B2, “Fungicidal composition and method for controlling plant diseases” (ISHIHARA SANGYO KAISHA, LTD., priority 2015, dated 2019).

Molecules are shown by their SMILES.

This assay deals with Blumeria graminis. Briefly: Test on preventive effect against wheat powdery mildew (seed treatment). In kind it is in vivo, Blumeria graminis on wheat (cultivar: Norin-61-go). The note with it: seed coating, first leaf, 7 days after inoculation; for Lesion area ratio (%): non-treated plot 90. The source says: 50 g of wheat seeds (cultivar: Norin-61-go), and predetermined amounts of an aqueous suspension containing pyriofenone 30% (WN) (tradename: PROPERTY FLOWABLE), an aqueous suspension containing fluazinam 50% (WN) (tradename: FROWNCIDE SC) and an aqueous suspension containing thiophanate-methyl 75% (WM) (tradename: TOPSIN M sol) so that the respective active ingredient amounts were as identified in Table 1 (g.a.i./100 kg seed), were put in a plastic bag, sufficiently stirred and air-dried to obtain seeds coated with a fungicidal composition. Ten seeds coated with a fungicidal composition were sown in a plastic pot (diameter: 7.5 cm, height: 6.8 cm, cylindrical black plastic pot, soil: culture soil). Wheat plants were cultivated in a greenhouse and at the 1-leaf stage, conidia of Blumeria graminis were dusted and inoculated, and the wheat plants were maintained in a constant temperature chamber at 20° C. The same operation was conducted with respect to seeds coated with the respective active ingredients individually, for comparison, as shown in Table 1. 7 days after the inoculation, the lesion area ratio on the first leaf was examined, and the control value was calculated based on the following formula. Further, theoretical values (control values) by use in combination were also calculated in accordance with the following Colby's formula. Control value=(1−a/b)×100 • a: lesion area ratio in treated plot • b: lesion area ratio in non-treated plot Colby's formula=(X+Y+Z)−(XY+YZ+ZX)/100+XYZ/10,000 • X: control value of component (a) used singly • Y: control value of component (b) used singly • Z: control value of component (c) used singly

Setting [1] is: fluazinam 3.3 g.a.i./100 kg seed.
[2] abbreviates: fluazinam 10 g.a.i./100 kg seed.
The mark [3] stands for this setting: pyriofenone 30 g.a.i./100 kg seed.
[4] abbreviates: thiophanate-methyl 23.3 g.a.i./100 kg seed.
Where [5] appears, read: thiophanate-methyl 35 g.a.i./100 kg seed.
The mark [6] stands for this setting: thiophanate-methyl 70 g.a.i./100 kg seed.

`O=[N+]([O-])c1cc(C(F)(F)F)c(Cl)c([N+](=O)[O-])c1Nc1ncc(C(F)(F)F)cc1Cl` [Fluazinam, N-(3-chloro-5-trifluoromethyl-2-pyridyl)-2,6-dinitro-3-chloro-4-trifluoromethylaniline]: the Control value was 0 under setting [1], 0 (fluazinam 5 g.a.i./100 kg seed) and 0 under setting [2]. Moreover, the “Lesion area ratio (%)” value under setting [1] turned out to be 90%, the “Lesion area ratio (%)” value (fluazinam 5 g.a.i./100 kg seed) worked out at 90% and the “Lesion area ratio (%)” value under setting [2] is reported as 90%.

Regarding `COc1cc(C)c(C(=O)c2c(OC)ncc(Cl)c2C)c(OC)c1OC` [Pyriofenone, 3-(2,3,4-trimethoxy-6-methylbenzoyl)-5-chloro-2-methoxy-4-methylpyridine], under setting [3], the Control value turned out to be 44 and the “Lesion area ratio (%)” value came to 50%.

With `COC(=O)NC(=S)Nc1ccccc1NC(=S)NC(=O)OC` [Thiophanate-methyl, 1,2-di-(3-methoxycarbonyl-2-thioureido)benzene], the Control value under setting [4] was 0, the Control value under setting [5] is 33 and the Control value under setting [6] is given as 44. In addition, the “Lesion area ratio (%)” value under setting [4] is given as 90%, the “Lesion area ratio (%)” value under setting [5] was 60% and the “Lesion area ratio (%)” value under setting [6] amounted to 50%.
